# According to ChEMBL document CHEMBL2074347, “Circumvention of tumor multidrug resistance by a new annonaceous acetogenin: atemoyacin-B” (Acta Pharmacol Sin, 1999):
# How the values were obtained:
# [1] = target: T1, ATP-dependent translocase ABCB1 (Homo sapiens, UniProt P08183); test: TP_TRANSPORTER: increase in Fura-2 intracellular accumulation (Fura-2: ? uM, Ateomyacin-B: 168 uM) in MCF-7/Dox cells; format: functional, cell-based
# [2] = target: T1, ATP-dependent translocase ABCB1; test: TP_TRANSPORTER: increase in Doxorubicin intracellular accumulation (Doxorubicin: ? uM, Ateomyacin-B: 168 uM) in MCF-7/Dox cells; format: functional, cell-based
# T1 sequence (P08183 whole entry): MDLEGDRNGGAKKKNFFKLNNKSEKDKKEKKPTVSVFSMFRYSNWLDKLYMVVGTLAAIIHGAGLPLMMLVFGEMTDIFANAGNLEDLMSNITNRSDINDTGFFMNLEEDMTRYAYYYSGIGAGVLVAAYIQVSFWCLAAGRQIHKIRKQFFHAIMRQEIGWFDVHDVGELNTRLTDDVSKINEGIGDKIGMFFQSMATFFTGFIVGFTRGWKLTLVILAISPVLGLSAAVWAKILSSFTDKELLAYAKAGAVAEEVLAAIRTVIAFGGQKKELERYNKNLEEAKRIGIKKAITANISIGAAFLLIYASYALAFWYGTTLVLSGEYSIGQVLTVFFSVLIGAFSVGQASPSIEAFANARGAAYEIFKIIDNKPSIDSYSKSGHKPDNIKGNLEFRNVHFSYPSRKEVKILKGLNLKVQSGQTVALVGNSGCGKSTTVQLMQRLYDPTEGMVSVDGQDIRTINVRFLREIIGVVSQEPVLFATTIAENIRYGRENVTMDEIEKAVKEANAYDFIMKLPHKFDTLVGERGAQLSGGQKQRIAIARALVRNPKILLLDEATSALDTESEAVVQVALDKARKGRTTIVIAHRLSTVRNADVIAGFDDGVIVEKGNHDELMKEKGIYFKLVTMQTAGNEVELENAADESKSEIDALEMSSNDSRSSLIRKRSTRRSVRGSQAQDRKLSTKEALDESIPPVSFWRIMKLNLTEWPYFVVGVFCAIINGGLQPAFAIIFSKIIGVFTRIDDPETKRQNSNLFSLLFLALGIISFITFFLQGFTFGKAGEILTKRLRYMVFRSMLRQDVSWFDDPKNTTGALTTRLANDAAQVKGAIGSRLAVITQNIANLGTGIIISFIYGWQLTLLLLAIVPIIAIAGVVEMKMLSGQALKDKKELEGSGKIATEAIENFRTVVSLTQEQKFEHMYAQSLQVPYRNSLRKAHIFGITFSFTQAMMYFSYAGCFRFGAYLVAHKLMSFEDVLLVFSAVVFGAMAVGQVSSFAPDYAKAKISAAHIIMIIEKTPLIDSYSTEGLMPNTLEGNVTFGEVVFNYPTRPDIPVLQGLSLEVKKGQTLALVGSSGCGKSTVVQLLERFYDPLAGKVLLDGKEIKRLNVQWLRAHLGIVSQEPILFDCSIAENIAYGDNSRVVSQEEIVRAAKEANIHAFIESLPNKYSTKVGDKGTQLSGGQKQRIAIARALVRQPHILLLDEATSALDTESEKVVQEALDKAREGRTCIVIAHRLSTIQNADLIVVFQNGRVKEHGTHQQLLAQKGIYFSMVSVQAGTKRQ
smiles,measurement,setting,value
CCCCCC(O)CCCCC(O)C1CCC(C2CCC(C(O)CCCCCCCCCCC3=CC(C)OC3=O)O2)O1 (configuration not stated) [Atemoyacin-B],Activity,[1],2.61 fold
same,Activity,[2],3.28 fold
